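Tested at 5 concentrations; 48 h exposure; 96-well plates; endpoints linearly interpolated, else capped at highest concentration. The concentration for 50% growth inhibition is given as GI50.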 Active and inactive are the calls of the source. Cut-off read from the data, not from the text of the source: active = GI50 up to about 1.1 µM and inactive = higher.
How the values were obtained:
Experiment in all cases: NCI anticancer screen, dose series, 48 h
[1] = tested on: CAKI-1
[2] = tested on: SW-620
[3] = tested on: NCI/ADR-RES
[4] = tested on: NCI-H522
[5] = tested on: ACHN
[6] = tested on: MDA-MB-435
[7] = tested on: HCT-116
[8] = tested on: Hs-578T
[9] = tested on: RPMI-8226
[10] = tested on: HOP-62
[11] = tested on: OVCAR-3
[12] = tested on: MDA-MB-231
[13] = tested on: NCI-H23
[14] = tested on: OVCAR-8
[15] = tested on: U-251
[16] = tested on: A498
[17] = tested on: SNB-19
[18] = tested on: SK-MEL-28
[19] = tested on: KM12
[20] = tested on: NCI-H226

SMILES | GI50 [1] | GI50 [2] | GI50 [3] | GI50 [4] | GI50 [5] | GI50 [6] | GI50 [7] | GI50 [8] | GI50 [9] | GI50 [10] | GI50 [11] | GI50 [12] | GI50 [13] | GI50 [14] | GI50 [15] | GI50 [16] | GI50 [17] | GI50 [18] | GI50 [19] | GI50 [20]
CN(Cc1cc(Br)cc(Br)c1O)Cc1c(O)ccc2ccccc12 | 16.1 µM (inactive) | 32 µM (inactive) | 34.6 µM (inactive) | 26.7 µM (inactive) | 22.7 µM (inactive) | 18 µM (inactive) | 16.7 µM (inactive) | 33.1 µM (inactive) | 22.6 µM (inactive) | 18.7 µM (inactive) | 15.2 µM (inactive) | 16.7 µM (inactive) | 22.6 µM (inactive) | 23.8 µM (inactive) | 19.3 µM (inactive) | 20 µM (inactive) | 17.2 µM (inactive) | 20 µM (inactive) | 17.2 µM (inactive) | 20.6 µM (inactive)
c1cc(CSc2ncnc3[nH]cnc23)ccn1 | > 100 µM (inactive) | > 100 µM (inactive) | > 100 µM (inactive) | 42.2 µM (inactive) | > 100 µM (inactive) | 53.2 µM (inactive) | 77.8 µM (inactive) | > 100 µM (inactive) | 58.1 µM (inactive) | 91.8 µM (inactive) | 63 µM (inactive) | > 100 µM (inactive) | > 100 µM (inactive) | 94 µM (inactive) | > 100 µM (inactive) | > 100 µM (inactive) | > 100 µM (inactive) | > 100 µM (inactive) | > 100 µM (inactive) | > 100 µM (inactive)
COC(=O)c1ccc(CCc2cc(O)c(Br)cc2O)cc1 | 10.3 µM (inactive) | 15 µM (inactive) | 14.3 µM (inactive) | 3.16 µM (inactive) | 13.2 µM (inactive) | 8.49 µM (inactive) | 5.38 µM (inactive) | 33.3 µM (inactive) | 3.35 µM (inactive) | 17.6 µM (inactive) | 8.02 µM (inactive) | 15.1 µM (inactive) | 10.4 µM (inactive) | 16 µM (inactive) | 12.6 µM (inactive) | 22.1 µM (inactive) | 17.4 µM (inactive) | 17.5 µM (inactive) | 15.1 µM (inactive) | 21.4 µM (inactive)
c1cncc(CNCCN2CCNCC2)c1 | > 100 µM (inactive) | > 100 µM (inactive) | > 100 µM (inactive) | > 100 µM (inactive) | > 100 µM (inactive) | > 100 µM (inactive) | > 100 µM (inactive) | > 100 µM (inactive) | > 100 µM (inactive) | > 100 µM (inactive) | > 100 µM (inactive) | > 100 µM (inactive) | > 100 µM (inactive) | > 100 µM (inactive) | > 100 µM (inactive) | > 100 µM (inactive) | > 100 µM (inactive) | > 100 µM (inactive) | > 100 µM (inactive) | > 100 µM (inactive)
CC1OC(O[C@H]2C3C=CO[C@@H](OC4OC(CO)C(O)C(O)C4O)C3[C@@]3(COC(=O)/C=C/c4ccccc4)O[C@@H]23)C(O)C(O)C1O (stereo not given in full) | > 100 µM (inactive) | > 100 µM (inactive) | > 100 µM (inactive) | > 100 µM (inactive) | > 100 µM (inactive) | > 100 µM (inactive) | > 100 µM (inactive) | > 100 µM (inactive) | > 100 µM (inactive) | > 100 µM (inactive) | > 100 µM (inactive) | > 100 µM (inactive) | > 100 µM (inactive) | > 100 µM (inactive) | > 100 µM (inactive) | > 100 µM (inactive) | > 100 µM (inactive) | > 100 µM (inactive) | > 100 µM (inactive) | > 100 µM (inactive)
CC(C)(C)OC(=O)N1CC(COS(C)(=O)=O)c2ccc(O)cc21 (stereo not given) | 2.42 µM (inactive) | 2.1 µM (inactive) | 1.74 µM (inactive) | 1.05 µM (active) | 0.684 µM (active) | 1.8 µM (inactive) | 1.95 µM (inactive) | 2.46 µM (inactive) | 0.615 µM (active) | 3.3 µM (inactive) | 2.05 µM (inactive) | 2.77 µM (inactive) | 1.14 µM (inactive) | 1.85 µM (inactive) | 2.51 µM (inactive) | 2.18 µM (inactive) | 2.7 µM (inactive) | 2.14 µM (inactive) | 2.46 µM (inactive) | 1.92 µM (inactive)
Cn1c(=O)oc2cc(C(=O)CSC(=S)N3CCCCCC3)ccc21 | > 100 µM (inactive) | > 100 µM (inactive) | 54.2 µM (inactive) | > 100 µM (inactive) | > 100 µM (inactive) | > 100 µM (inactive) | 73.6 µM (inactive) | 19 µM (inactive) | > 100 µM (inactive) | 61.1 µM (inactive) | > 100 µM (inactive) | > 100 µM (inactive) | > 100 µM (inactive) | > 100 µM (inactive) | 72.8 µM (inactive) | 6.93 µM (inactive) | > 100 µM (inactive) | > 100 µM (inactive) | 49.8 µM (inactive) | > 100 µM (inactive)
N#Cc1nc(-c2ccccn2)c(-c2ccccn2)nc1C#N | 2.04 µM (inactive) | 3.08 µM (inactive) | 1.8 µM (inactive) | 1.64 µM (inactive) | 1.11 µM (active) | 2.7 µM (inactive) | 0.624 µM (active) | 11.2 µM (inactive) | 2.83 µM (inactive) | 1.74 µM (inactive) | 3.79 µM (inactive) | 10.7 µM (inactive) | 2.9 µM (inactive) | 2.64 µM (inactive) | 2.32 µM (inactive) | 2.09 µM (inactive) | 4.1 µM (inactive) | 3.96 µM (inactive) | 2.52 µM (inactive) | 0.593 µM (active)
COc1c(Br)cc2c(c1OC)C(Br)CCC(Br)(Br)C2=O (stereo not given) | 2.77 µM (inactive) | 0.38 µM (active) | 0.587 µM (active) | 0.393 µM (active) | 2.29 µM (inactive) | 0.434 µM (active) | 0.273 µM (active) | 10.4 µM (inactive) | 1.34 µM (inactive) | 2.19 µM (inactive) | 1.14 µM (inactive) | 3.1 µM (inactive) | 0.386 µM (active) | 0.378 µM (active) | 2.18 µM (inactive) | 3.32 µM (inactive) | 4.36 µM (inactive) | 2.5 µM (inactive) | 3.72 µM (inactive) | 2.21 µM (inactive)
O=c1[nH]nc(Cc2ccccc2)n1C1CC1 | > 100 µM (inactive) | > 100 µM (inactive) | > 100 µM (inactive) | > 100 µM (inactive) | > 100 µM (inactive) | > 100 µM (inactive) | > 100 µM (inactive) | > 100 µM (inactive) | > 100 µM (inactive) | > 100 µM (inactive) | > 100 µM (inactive) | > 100 µM (inactive) | > 100 µM (inactive) | > 100 µM (inactive) | > 100 µM (inactive) | > 100 µM (inactive) | > 100 µM (inactive) | > 100 µM (inactive) | > 100 µM (inactive) | > 100 µM (inactive)
CCOC(=O)C(CS)NC(=O)CCCCCCCC(=O)NC(CS)C(=O)OCC (stereo not given) | > 100 µM (inactive) | > 100 µM (inactive) | > 100 µM (inactive) | 49.1 µM (inactive) | > 100 µM (inactive) | > 100 µM (inactive) | > 100 µM (inactive) | > 100 µM (inactive) | > 100 µM (inactive) | > 100 µM (inactive) | > 100 µM (inactive) | > 100 µM (inactive) | > 100 µM (inactive) | > 100 µM (inactive) | > 100 µM (inactive) | > 100 µM (inactive) | 37.4 µM (inactive) | > 100 µM (inactive) | > 100 µM (inactive) | > 100 µM (inactive)
Cc1noc(C)c1-n1nc2ccc3nonc3c2n1 | > 83.8 µM (inactive) | > 100 µM (inactive) | > 100 µM (inactive) | > 78.7 µM (inactive) | > 88.5 µM (inactive) | > 100 µM (inactive) | 56.6 µM (inactive) | 29 µM (inactive) | > 100 µM (inactive) | 22.5 µM (inactive) | > 100 µM (inactive) | > 65.9 µM (inactive) | > 72.8 µM (inactive) | 50.7 µM (inactive) | 30.1 µM (inactive) | 32.7 µM (inactive) | 32.3 µM (inactive) | > 100 µM (inactive) | > 100 µM (inactive) | > 81.8 µM (inactive)
CCOC(=O)C12OC(CCC1=O)C(C(=O)OC)=C2C(=O)OC (stereo not given) | > 10 µM (inactive) | > 10 µM (inactive) | > 10 µM (inactive) | > 10 µM (inactive) | > 10 µM (inactive) | > 10 µM (inactive) | > 10 µM (inactive) | > 10 µM (inactive) | > 10 µM (inactive) | > 10 µM (inactive) | > 10 µM (inactive) | > 10 µM (inactive) | > 10 µM (inactive) | > 10 µM (inactive) | > 10 µM (inactive) | > 10 µM (inactive) | > 10 µM (inactive) | > 10 µM (inactive) | > 10 µM (inactive) | > 10 µM (inactive)
NCCCCN(CCCN)C(=O)OCc1ccccc1 | > 100 µM (inactive) | > 100 µM (inactive) | > 100 µM (inactive) | > 100 µM (inactive) | > 100 µM (inactive) | > 100 µM (inactive) | > 100 µM (inactive) | > 100 µM (inactive) | > 100 µM (inactive) | > 100 µM (inactive) | > 100 µM (inactive) | > 100 µM (inactive) | > 100 µM (inactive) | > 100 µM (inactive) | > 100 µM (inactive) | > 100 µM (inactive) | > 100 µM (inactive) | > 100 µM (inactive) | > 100 µM (inactive) | > 100 µM (inactive)

— ChEMBL document CHEMBL1201862, “PubChem BioAssay data set” (2004)
